Data taken from PubChem BioAssay (NCI).
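Values below derive from 48-hour exposures of cells grown in 96-well plates, with endpoints linearly interpolated between the two concentrations bracketing the appropriate inhibition level. GI50 marks 50% less growth. TGI denotes the concentration required for complete inhibition of growth.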

What was measured:
Test in all cases: growth of human tumour cells (NCI), 48 h
OVCAR-4 ovarian = test system: OVCAR-4 ovarian
HOP-92 NSCLC = test system: HOP-92 NSCLC
NCI-H460 lung = test system: NCI-H460 lung
LOX IMVI melanoma = test system: LOX IMVI melanoma
NCI-H23 lung = test system: NCI-H23 lung
SK-MEL-2 melanoma = test system: SK-MEL-2 melanoma
ACHN renal = test system: ACHN renal
RXF 393 renal = test system: RXF 393 renal
SK-OV-3 ovarian = test system: SK-OV-3 ovarian
TK-10 renal = test system: TK-10 renal

SMILES	TGI (OVCAR-4 ovarian) [µM]	TGI (HOP-92 NSCLC) [µM]	TGI (NCI-H460 lung) [µM]	TGI (LOX IMVI melanoma) [µM]	TGI (NCI-H23 lung) [µM]	TGI (SK-MEL-2 melanoma) [µM]	TGI (ACHN renal) [µM]	TGI (RXF 393 renal) [µM]	TGI (SK-OV-3 ovarian) [µM]	TGI (TK-10 renal) [µM]	GI50 (OVCAR-4 ovarian) [µM]	GI50 (HOP-92 NSCLC) [µM]	GI50 (NCI-H460 lung) [µM]	GI50 (NCI-H23 lung) [µM]	GI50 (ACHN renal) [µM]	GI50 (SK-OV-3 ovarian) [µM]	GI50 (TK-10 renal) [µM]	GI50 (LOX IMVI melanoma) [µM]	GI50 (SK-MEL-2 melanoma) [µM]	GI50 (RXF 393 renal) [µM]
N[C@H]1C2C3CC4C5CC(C42)C1(c1ccccc1)C53 (stereo not given in full)	> 100	> 100	> 100	> 100	> 100	> 100	> 100	> 100	> 100	> 100	–	–	–	–	–	–	–	–	–	–
COc1cc2cc(Oc3ccc(NC(=O)Nc4cccc(C(F)(F)F)c4)cc3)c(C)nc2cc1OCCN1CCCCC1	3.39	2.34	3.37	–	3.26	–	3.06	–	3.8	3.36	1.66	1.08	1.83	1.7	1.69	2.06	1.83	–	–	–
N#Cc1ccccc1NC(=O)C(=O)C(C(=O)c1ccccc1-c1ccccc1)C1OC(=O)c2ccccc21 (stereo not given)	–	38.8	40.4	32.2	26.1	32.1	89.4	25.3	> 100	–	–	–	–	–	–	–	–	–	–	–
CCOC(=O)c1cccc(=O)c(C(=O)OCC)c1	> 100	–	> 100	–	> 100	> 100	> 100	> 100	> 100	> 100	–	–	–	–	–	–	–	–	–	–
CCOC(=O)c1cnc(SCc2ccc(Cl)c(Cl)c2)nc1N1CC1	14	–	7.66	5.73	14.5	11.1	13.2	16.2	10.4	15.2	3.17	–	2.88	3.62	3.12	2.85	3.87	1	3.26	4.04
COc1cc2c(cc1OC)C(=O)C(Br)CC2 (stereo not given)	–	12.2	16.9	3.34	10.9	9.98	3.7	3.01	13.7	17.8	–	2.63	4.27	2.89	1.86	4.55	5.17	1.74	3.6	1.55
CC(Cc1ccc(Cl)cc1Cl)NO (stereo not given)	> 100	–	–	> 100	> 100	> 100	> 100	> 100	> 100	> 100	–	–	–	–	–	–	–	–	–	–
CC12OC(C(=O)C13CC3)C1C(=O)c3ccccc3C(=O)C12 (stereo not given)	–	60.7	> 100	–	> 100	> 100	–	24.9	74.8	58.8	–	21.8	29.9	29.5	–	25.3	22.8	–	47.1	10
O=C1C2=C(c3ccccc31)C(c1ccc(Cl)cc1)N1C(=O)CCSC1=N2 (stereo not given)	> 100	> 100	–	–	> 100	> 100	> 100	–	> 100	> 100	–	–	–	–	–	–	–	–	–	–
